Reference: paper PMC4159592 (Chembiochem, 2014)

Molecular target: CYP126 (Mycobacterium tuberculosis, UniProt P9WPN9)
Test: biochemical
Assay type: binding

Chain of CYP126 (P9WPN9 whole entry): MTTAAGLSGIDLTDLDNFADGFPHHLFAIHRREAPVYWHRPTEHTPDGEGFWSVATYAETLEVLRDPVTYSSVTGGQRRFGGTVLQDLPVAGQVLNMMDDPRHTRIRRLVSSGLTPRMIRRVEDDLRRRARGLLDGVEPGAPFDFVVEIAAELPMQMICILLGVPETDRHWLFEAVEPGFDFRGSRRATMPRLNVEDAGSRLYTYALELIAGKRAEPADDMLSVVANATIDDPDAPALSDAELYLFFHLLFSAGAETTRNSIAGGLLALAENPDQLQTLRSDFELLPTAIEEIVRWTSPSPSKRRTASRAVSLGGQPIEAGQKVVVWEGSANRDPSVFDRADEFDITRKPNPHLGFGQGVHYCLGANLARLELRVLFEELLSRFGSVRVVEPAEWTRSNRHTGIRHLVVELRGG

Compound `Oc1c(Cl)c(Cl)c(Cl)c(Cl)c1Cl` [TB23, pentachlorophenol] has a Kd of 150 µM.
